The text below walks through data of PMC4664966, “Discovery and characterization of novel inhibitors of the sodium-coupled citrate transporter (NaCT or SLC13A5)” (Scientific Reports, 2015).

Data set [1] is described as follows: Intra-/extracellular unbound concentration ratio (Kpuu) in human hepatocytes. Format: in vitro ADME. Conditions: cryopreserved hepatocytes, ratio of free intracellular and media concentration after 1 h incubation at 1 μM, geometric mean of 3 replicates ± SD. How it is done: kpuu values were determined by measuring total cell and media concentrations corrected for their respective fraction unbound. Detailed methods to determine intra- and extracellular concentrations of compound in the HEKNaCT cells and human hepatocytes will be the subject of a separate manuscript that is under preparation. […]
Intra- and extracellular concentrations of compound in cellular assays. kpuu values were determined by measuring total cell and media concentrations corrected for their respective […]
fraction unbound. […]
The solution was heated to reflux until the total volume was reduced to ~25 mL.
Hexane (25 mL) was added and the mixture was brought back to reflux than allowed to slowly cool to room temperature. After standing at room temperature for 16 h, the resulting suspension was filtered and dried under high vacuum to yield (S)-2-(4-(tert-butyl)phenethyl)-2-hydroxysuccinic acid (3) as a white solid. The filtrate was allowed to stand at room temperature for 4 days. The solvent evaporated to ~15 mL and large, colorless crystals formed.
X-ray analysis. Data collection was performed on a Bruker APEX diffractometer at room temperature. Data collection consisted of 3 omega scans and low angle and three at high angle; each with 0.5 step. In addition, 2 phi scans were collected to improve the quality of the […]

Data set [2] can be described thus: Aqueous solubility. Format: physicochemical. As to conditions: aqueous medium at pH 7.4, pH 7.4, aqueous buffer; read-out: Solubility7.4.
The test system of data set [3] is human hepatocytes. Put plainly: Incorporation of [14C]-citrate into triglycerides by human hepatocytes. As to conditions: radiolabeled citrate for 24 hours. Format: cell-based. How it is done:
Incorporation of [^14C]-citrate into triglycerides by human hepatocytes was measured using the same procedure as above except cells were incubated with the radioactive citrate for 24 hours. Subsequently, the media was aspirated and 100 μL of isopropyl alcohol:THF (9:1) was added. The plate was shaken for 15 minutes, centrifuged at 3000 revolutions per minute for 5 minutes, and 50 μL of supernatant from each well was applied per TLC lane (Whatman LK6D Silica Gel Plates). Radiolabeled lipids were resolved using a 2-solvent system: Solvent 1 contained a 100:100:100:40:36 mixture of ethyl acetate:isopropyl alcohol:CHCl3:MeOH:0.25% KCl and Solvent 2 a 70:27:3 hexane:diethyl ether:acetic acid mixture. The TLC plate was dried under nitrogen for 30 minutes and [^14C]-standards added to a vacant lane. Bands were visualized and quantitated using a Molecular Dynamics’ Storm 860 PhosphorImager system following 18–36 hours exposure to a Phosphorimager screen.

In data set [4] the target is Abelson murine leukemia viral oncogene homolog 1 (ABL1) (Homo sapiens, UniProt P00519). Put plainly: Selectivity data (Table S1). Format: biochemical.
Data set [5] deals with CYP2C8 (Homo sapiens, UniProt P10632). Kind of data set: Selectivity data (Table S1). Format: in vitro ADME. As to conditions: 3 µM.
Data set [6] has as its target Cytochrome P450 2C8 (CYP2C8) (Homo sapiens, UniProt P10632). Kind of data set: Selectivity data (Table S1). It is filed as in vitro ADME.
For data set [7], the target named is CYP3A4 (Homo sapiens, UniProt P08684). Put plainly: Selectivity data (Table S1). As to conditions: 3 µM. It is filed as in vitro ADME.
CYP3A4, sequence (P08684 whole entry): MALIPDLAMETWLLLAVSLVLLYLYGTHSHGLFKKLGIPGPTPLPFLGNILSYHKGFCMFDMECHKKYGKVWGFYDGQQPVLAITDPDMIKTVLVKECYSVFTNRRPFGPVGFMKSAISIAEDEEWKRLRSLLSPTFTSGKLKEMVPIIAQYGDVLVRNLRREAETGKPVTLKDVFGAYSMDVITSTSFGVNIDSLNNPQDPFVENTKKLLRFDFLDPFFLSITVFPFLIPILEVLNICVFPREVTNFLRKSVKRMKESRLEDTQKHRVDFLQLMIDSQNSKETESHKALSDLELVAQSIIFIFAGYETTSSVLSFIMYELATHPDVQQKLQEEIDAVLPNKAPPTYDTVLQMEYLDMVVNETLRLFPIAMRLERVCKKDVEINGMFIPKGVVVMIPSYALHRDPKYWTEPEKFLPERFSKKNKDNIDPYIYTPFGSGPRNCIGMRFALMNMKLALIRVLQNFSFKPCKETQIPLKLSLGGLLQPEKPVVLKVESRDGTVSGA
The target of data set [8] is Cytochrome P450 3A4 (CYP3A4) (Homo sapiens, UniProt P08684). Put plainly: Selectivity data (Table S1). It is filed as in vitro ADME.
Cytochrome P450 3A4 (CYP3A4), sequence (P08684 whole entry): as above
Data set [9] deals with Diacylglycerol acyltransferase 2 (DGAT2) (Homo sapiens, UniProt Q96PD7). Put plainly: Selectivity data (Table S1). Format: biochemical.
Diacylglycerol acyltransferase 2 (DGAT2), sequence (Q96PD7 whole entry, species assumed): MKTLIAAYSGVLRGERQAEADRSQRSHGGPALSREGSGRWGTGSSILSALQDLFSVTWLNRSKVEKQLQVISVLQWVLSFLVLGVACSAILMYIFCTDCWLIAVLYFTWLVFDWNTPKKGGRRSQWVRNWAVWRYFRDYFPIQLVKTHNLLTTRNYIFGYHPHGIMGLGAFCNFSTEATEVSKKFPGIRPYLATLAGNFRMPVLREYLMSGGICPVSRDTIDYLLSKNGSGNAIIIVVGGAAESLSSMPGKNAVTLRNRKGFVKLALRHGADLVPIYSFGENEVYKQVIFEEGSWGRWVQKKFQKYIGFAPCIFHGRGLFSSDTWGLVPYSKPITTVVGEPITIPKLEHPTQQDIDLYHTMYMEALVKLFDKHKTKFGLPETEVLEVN
The target of data set [10] is Phosphodiesterase 4D (PDE4D) (Homo sapiens, UniProt Q08499). Put plainly: Selectivity data (Table S1). Format: biochemical.
The target in data set [11] is Noradrenaline transporter, sodium-dependent (NAT) (Homo sapiens, UniProt P23975). Put plainly: Selectivity data (Table S1).
Data set [12] has as its target Adrenergic receptor, alpha-2B (ADRA2B) (Homo sapiens, UniProt P18089). Put plainly: Selectivity data (Table S1). It is filed as binding.
Data set [13] concerns the target Adrenergic receptor, beta-1 (ADRB1) (Homo sapiens, UniProt P08588). Kind of data set: Selectivity data (Table S1). It is filed as binding.
Data set [14] addresses Adrenergic receptor, beta-2(ADRB2) (Homo sapiens, UniProt P07550). Put plainly: Selectivity data (Table S1). It is filed as binding.
In data set [15] the target is Arginine vasopressin receptor 1A (AVPR1A) (Homo sapiens, UniProt P37288). Put plainly: Selectivity data (Table S1). Format: binding.
Data set [16] concerns the target Dopamine receptor 1 (D1) (Homo sapiens, UniProt P21728). Put plainly: Selectivity data (Table S1). It is filed as binding.
The target of data set [17] is Endothelin (ETA) (Homo sapiens, UniProt P25101). Put plainly: Selectivity data (Table S1). It is filed as binding.
The target in data set [18] is Histamine receptor (H3) (Homo sapiens, UniProt Q9Y5N1). Kind of data set: Selectivity data (Table S1). Format: binding.
Histamine receptor (H3), sequence (Q9Y5N1 whole entry): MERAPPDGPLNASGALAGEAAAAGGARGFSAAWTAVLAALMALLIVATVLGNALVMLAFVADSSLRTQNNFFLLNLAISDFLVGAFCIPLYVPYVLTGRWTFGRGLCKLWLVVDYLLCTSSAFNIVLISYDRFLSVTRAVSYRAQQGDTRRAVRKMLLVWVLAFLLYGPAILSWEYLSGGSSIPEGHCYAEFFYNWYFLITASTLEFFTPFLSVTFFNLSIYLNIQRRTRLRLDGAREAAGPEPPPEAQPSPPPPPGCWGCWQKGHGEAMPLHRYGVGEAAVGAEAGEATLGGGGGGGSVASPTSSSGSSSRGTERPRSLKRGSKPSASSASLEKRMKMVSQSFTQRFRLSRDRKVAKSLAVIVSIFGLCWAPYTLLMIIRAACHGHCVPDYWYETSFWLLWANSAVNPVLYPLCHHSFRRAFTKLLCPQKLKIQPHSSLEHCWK
Data set [19] concerns the target Nicotinic acetylcholine receptor complex (alpha-4 / beta-2) (Homo sapiens, UniProt P17787+P43681). Kind of data set: Selectivity data (Table S1). It is filed as binding.
For data set [20], the target named is Opioid receptor, kappa 1 (OPRK1) (Homo sapiens, UniProt P41145). Kind of data set: Selectivity data (Table S1). Format: binding.
Opioid receptor, kappa 1 (OPRK1), sequence (P41145 whole entry): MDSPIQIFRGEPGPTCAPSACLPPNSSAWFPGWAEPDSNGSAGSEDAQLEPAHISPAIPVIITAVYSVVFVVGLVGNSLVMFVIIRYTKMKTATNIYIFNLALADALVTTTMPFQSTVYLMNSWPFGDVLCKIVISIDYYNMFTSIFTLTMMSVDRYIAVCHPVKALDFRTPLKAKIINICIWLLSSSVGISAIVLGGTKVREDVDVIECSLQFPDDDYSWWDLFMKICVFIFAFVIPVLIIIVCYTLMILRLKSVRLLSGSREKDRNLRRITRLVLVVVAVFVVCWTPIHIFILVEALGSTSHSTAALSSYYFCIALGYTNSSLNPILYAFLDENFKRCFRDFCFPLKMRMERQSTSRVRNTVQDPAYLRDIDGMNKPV
In data set [21] the target is Serotonin receptor 2B (5-HT2B) (Homo sapiens, UniProt P41595). Put plainly: Selectivity data (Table S1). Format: binding.
Serotonin receptor 2B (5-HT2B), sequence (P41595 whole entry): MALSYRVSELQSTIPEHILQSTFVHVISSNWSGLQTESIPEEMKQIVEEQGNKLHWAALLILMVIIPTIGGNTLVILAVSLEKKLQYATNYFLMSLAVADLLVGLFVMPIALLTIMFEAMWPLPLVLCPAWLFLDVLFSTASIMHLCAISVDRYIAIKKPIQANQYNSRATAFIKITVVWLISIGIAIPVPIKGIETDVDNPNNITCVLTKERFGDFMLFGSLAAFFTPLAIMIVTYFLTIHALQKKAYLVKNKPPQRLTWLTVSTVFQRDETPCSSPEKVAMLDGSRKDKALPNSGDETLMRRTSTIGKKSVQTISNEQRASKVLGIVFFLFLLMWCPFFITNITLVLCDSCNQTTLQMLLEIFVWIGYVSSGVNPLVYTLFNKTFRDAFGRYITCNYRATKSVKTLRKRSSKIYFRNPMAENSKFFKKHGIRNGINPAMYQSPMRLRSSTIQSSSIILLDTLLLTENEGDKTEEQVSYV
For data set [22], the target named is Serotonin receptor 4e (5-HT4e) (Homo sapiens, UniProt Q13639). Kind of data set: Selectivity data (Table S1). Format: binding.
The target of data set [23] is Vascular endothelial growth factor receptor 2 (VEGFR-2) (Homo sapiens, UniProt P35968). Put plainly: Selectivity data (Table S1). Format: binding.
Vascular endothelial growth factor receptor 2 (VEGFR-2), sequence (P35968 20-1356): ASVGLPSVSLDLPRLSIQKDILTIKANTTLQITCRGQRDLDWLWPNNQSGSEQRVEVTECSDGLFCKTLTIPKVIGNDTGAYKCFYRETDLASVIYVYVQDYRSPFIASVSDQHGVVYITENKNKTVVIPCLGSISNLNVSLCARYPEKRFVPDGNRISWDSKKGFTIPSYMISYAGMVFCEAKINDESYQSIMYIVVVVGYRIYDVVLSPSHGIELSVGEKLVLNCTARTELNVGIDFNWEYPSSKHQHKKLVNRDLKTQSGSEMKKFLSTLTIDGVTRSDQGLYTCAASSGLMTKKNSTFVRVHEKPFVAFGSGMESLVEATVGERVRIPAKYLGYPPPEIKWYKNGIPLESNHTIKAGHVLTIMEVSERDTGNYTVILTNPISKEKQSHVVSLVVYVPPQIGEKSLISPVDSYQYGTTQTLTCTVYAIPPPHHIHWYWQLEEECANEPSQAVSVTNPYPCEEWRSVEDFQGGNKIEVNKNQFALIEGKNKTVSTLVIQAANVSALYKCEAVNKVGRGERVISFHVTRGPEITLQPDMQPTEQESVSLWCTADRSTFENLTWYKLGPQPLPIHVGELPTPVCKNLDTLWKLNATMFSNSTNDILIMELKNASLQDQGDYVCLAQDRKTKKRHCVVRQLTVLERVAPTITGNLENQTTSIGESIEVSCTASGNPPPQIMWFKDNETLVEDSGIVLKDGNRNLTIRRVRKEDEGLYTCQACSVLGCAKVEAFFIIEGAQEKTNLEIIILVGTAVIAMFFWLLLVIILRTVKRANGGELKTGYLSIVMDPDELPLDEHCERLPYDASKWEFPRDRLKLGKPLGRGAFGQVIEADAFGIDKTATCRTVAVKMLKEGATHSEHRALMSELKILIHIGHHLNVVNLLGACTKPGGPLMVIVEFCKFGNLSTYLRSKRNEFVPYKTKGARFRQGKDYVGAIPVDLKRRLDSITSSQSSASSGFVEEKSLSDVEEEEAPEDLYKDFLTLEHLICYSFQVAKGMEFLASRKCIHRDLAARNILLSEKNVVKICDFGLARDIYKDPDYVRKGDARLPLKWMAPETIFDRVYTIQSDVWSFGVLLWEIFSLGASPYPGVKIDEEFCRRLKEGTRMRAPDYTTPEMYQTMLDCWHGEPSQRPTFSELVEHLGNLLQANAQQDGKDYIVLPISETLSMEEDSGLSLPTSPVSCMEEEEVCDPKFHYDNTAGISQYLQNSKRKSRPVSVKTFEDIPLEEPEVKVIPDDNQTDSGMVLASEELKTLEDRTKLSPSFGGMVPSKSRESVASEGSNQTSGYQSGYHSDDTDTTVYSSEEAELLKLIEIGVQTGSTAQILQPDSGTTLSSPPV
Data set [24] addresses Potassium voltage-gated channel, KQT-like subfamily, member 1 (KCNQ1) (Homo sapiens, UniProt P51787). Put plainly: in vitro.

In brackets after ≈: the same amount, converted by molar mass. Bounds are passed on as bounds.

Adrenergic receptor, beta-1 (ADRB1), sequence (P08588 whole entry): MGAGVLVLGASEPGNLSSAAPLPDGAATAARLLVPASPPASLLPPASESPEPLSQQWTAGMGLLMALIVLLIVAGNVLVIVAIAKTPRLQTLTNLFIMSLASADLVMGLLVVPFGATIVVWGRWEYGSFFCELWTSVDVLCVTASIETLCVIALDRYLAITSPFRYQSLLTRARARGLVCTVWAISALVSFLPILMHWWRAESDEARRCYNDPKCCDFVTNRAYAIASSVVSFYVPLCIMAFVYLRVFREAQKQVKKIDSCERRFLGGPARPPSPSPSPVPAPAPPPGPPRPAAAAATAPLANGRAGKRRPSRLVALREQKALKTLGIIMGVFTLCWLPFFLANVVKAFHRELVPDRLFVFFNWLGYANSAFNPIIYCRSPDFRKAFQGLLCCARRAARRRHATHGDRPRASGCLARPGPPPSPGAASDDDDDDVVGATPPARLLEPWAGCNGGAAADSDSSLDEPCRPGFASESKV
Adrenergic receptor, alpha-2B (ADRA2B), sequence (P18089 whole entry): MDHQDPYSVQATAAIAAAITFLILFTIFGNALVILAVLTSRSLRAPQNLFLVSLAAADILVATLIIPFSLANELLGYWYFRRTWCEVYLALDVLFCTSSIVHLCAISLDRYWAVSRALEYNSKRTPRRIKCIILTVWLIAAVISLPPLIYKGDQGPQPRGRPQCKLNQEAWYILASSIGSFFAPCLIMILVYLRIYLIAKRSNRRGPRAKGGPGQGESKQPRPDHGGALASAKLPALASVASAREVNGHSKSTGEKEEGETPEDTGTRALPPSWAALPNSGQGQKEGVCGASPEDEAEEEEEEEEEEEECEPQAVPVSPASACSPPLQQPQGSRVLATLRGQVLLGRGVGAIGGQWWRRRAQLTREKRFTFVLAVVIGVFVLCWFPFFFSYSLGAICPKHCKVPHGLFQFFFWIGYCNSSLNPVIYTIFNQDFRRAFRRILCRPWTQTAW
Cytochrome P450 2C8 (CYP2C8), sequence (P10632 whole entry): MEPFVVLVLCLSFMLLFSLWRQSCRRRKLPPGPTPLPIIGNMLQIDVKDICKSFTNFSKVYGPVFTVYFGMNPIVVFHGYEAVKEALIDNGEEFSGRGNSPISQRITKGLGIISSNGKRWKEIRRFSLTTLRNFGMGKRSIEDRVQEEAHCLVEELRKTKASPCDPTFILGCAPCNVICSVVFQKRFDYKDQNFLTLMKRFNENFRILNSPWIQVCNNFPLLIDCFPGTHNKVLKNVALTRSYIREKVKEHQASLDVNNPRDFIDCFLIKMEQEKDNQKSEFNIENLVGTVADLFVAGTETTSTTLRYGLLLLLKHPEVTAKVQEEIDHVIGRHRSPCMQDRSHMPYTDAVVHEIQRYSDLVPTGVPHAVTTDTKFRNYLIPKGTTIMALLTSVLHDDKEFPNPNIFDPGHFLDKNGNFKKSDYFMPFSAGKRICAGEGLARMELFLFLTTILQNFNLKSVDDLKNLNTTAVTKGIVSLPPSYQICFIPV

As for `CC(C)(C)c1ccc(CC[C@@](O)(CC(=O)O)C(=O)O)cc1` [Compound 2], the Kp uu at 1 h, 1 µM in [1] was 4.8 ± 0.5. Further, the solubility in data set [2] amounted to 33 mM (≈ 9710 µg/mL). Also, in [3], the “label incorporation in TAG” value is given as “decreased dose-dependently”. For the same molecule, the inhibition at 100 µM in [4], in [10], in data set [11], in [12], in data set [13] and in data set [14] was less than 10% each time. Moreover, the inhibition (in general, the drop in the measured response relative to a control, in per cent) at 100 µM in data set [15] was less than 10%; in data set [16], less than 10%; in data set [17], less than 10%; in data set [18], less than 10%; in data set [19], less than 10%; in data set [20], 13%. The inhibition at 100 µM in data set [21], in data set [22] and in [23] was less than 10% in each case. The inhibition at 3 µM was less than 10% in data set [5] and 12% in data set [7]. For the same molecule, the “interaction/inhibition of CYP2C8” value in data set [6] is “no significant interaction/inhibition”. Besides, the “interaction/inhibition of CYP3A4” value in data set [8] was “no significant interaction/inhibition”. Further, the IC50 (as a rule, the concentration at which inhibition is half-maximal) in [9] was greater than 50 µM. The inhibition at 10 µM in [24] is less than 10%.
